# Test results taken from patent US11014911B2, “CDK2 inhibitors” (Pfizer Inc., priority 2019, dated 2021).
# pKi: −log10 of the molar value.
# Biological target: CDK2/Cyclin E1 full length (Homo sapiens (Human), UniProt P24941)
# Assay: CDK2/Cyclin E1 full length mobility shift assay
# Type: biochemical
row,pKi,Structure (SMILES)
1,9.14,"COc1ncccc1CC(=O)Nc1cc([C@H]2CC[C@@H](OC(=O)NC(C)(C)C)C2)[nH]n1 [Example 307, (1R,3S)-3-(3-{[(2-methoxypyridin-3-yl)acetyl]amino}-1H-pyrazol-5-yl)cyclopentyl tert-butylcarbamate]"
2,8.59,"O=C(Cc1cc(F)cc(F)c1)Nc1cc([C@@H]2CC[C@H](OC(=O)NC[C@@H]3CCCO3)C2)[nH]n1 [Example 499, (1S,3R)-3-(3-{[(3,5-difluorophenyl)acetyl]amino}-1H-pyrazol-5-yl)cyclopentyl [(2S)-tetrahydrofuran-2-ylmethyl]carbamate]"
3,8.80,"CC[C@H](C)NC(=O)O[C@@H]1CC[C@H](c2cc(NC(=O)Cc3nnc(C)o3)n[nH]2)C1 [Example 334, (1R,3S)-3-(3-{[(5-methyl-1,3,4-oxadiazol-2-yl)acetyl]amino}-1H-pyrazol-5-yl)cyclopentyl (2S)-butan-2-ylcarbamate]"
4,8.46,"CCCNC(=O)O[C@H]1CC[C@@H](c2cc(NC(=O)Cc3cn4c(C)csc4n3)n[nH]2)C1 [Example 199, (1S,3R)-3-(3-{[(3-methylimidazo[2,1-b][1,3]thiazol-6-yl)acetyl]amino}-1H-pyrazol-5-yl)cyclopentyl propylcarbamate]"
5,8.73,"CCCNC(=O)O[C@@H]1CC[C@H](c2cc(NC(=O)Cc3ccccc3S(C)(=N)=O)n[nH]2)C1 (single isomer, unassigned) [Example 202]"
6,8.54,"Cc1cc(CC(=O)Nc2cc([C@H]3CC[C@@H](OC(=O)N4CCC4C)C3)[nH]n2)on1 (single isomer, unassigned) [Example 590]"
7,8.76,"Cc1ncc(CC(=O)Nc2cc([C@H]3CC[C@@H](OC(=O)N[C@@H]4CCC[C@@H]4C)C3)[nH]n2)o1 [Example 462, (1R,3S)-3-(3-{[(2-methyl-1,3-oxazol-5-yl)acetyl]amino}-1H-pyrazol-5-yl)cyclopentyl [(1R,2S)-2-methylcyclopentyl]carbamate]"
8,8.43,"COc1ccc(CC(=O)Nc2cc([C@H]3CC[C@@H](OC(=O)NC4CCOCC4)C3)[nH]n2)cc1 [Example 502, (1R,3S)-3-(3-{[(4-methoxyphenyl)acetyl]amino}-1H-pyrazol-5-yl)cyclopentyl tetrahydro-2H-pyran-4-ylcarbamate]"
9,8.52,"CC(C)NC(=O)O[C@@H]1CC[C@H](c2cc(NC(=O)Cc3ccn(C)n3)n[nH]2)C1 [Example 267, (1R,3S)-3-(3-{[(1-methyl-1H-pyrazol-3-yl)acetyl]amino}-1H-pyrazol-5-yl)cyclopentyl propan-2-ylcarbamate]"
10,9.70,Cc1cnc(CC(=O)Nc2cc([C@H]3CC[C@@H](OC(=O)NC4(C)CC4)C3)[nH]n2)cc1Cl [Example 131]
11,8.92,"CCCNC(=O)O[C@@H]1CC[C@H](c2cc(NC(=O)Cc3ccccc3S(=O)(=O)NC)n[nH]2)C1 [Example 209, (1R,3S)-3-[3-({[2-(methylsulfamoyl)-phenyl]acetyl}amino)-1H-pyrazol-5-yl]cyclopentyl propylcarbamate]"
12,8.85,"COCc1cc(C(=O)Nc2cc([C@H]3CC[C@@H](OC(=O)NC4(C)CCOC4)C3)[nH]n2)n(C)n1 (single isomer, unassigned) [Example 488]"
13,8.32,"COc1cc(CC(=O)Nc2cc([C@H]3CC[C@@H](OC(=O)N4[C@H](C)C[C@H]4C)C3)[nH]n2)ccn1 [Example 609, (1R,3S)-3-(3-{[(2-methoxypyridin-4-yl)acetyl]amino}-1H-pyrazol-5-yl)cyclopentyl (2R,4R)-2,4-dimethylazetidine-1-carboxylate]"
14,8.68,"CCC(CO)CNC(=O)O[C@@H]1CC[C@H](c2cc(NC(=O)Cc3cc(F)cc(F)c3)n[nH]2)C1 (single isomer, unassigned) [Example 536]"

# Second part, the compound before the results:
row,Structure (SMILES),pKi
1,"O=C(Cc1ccon1)Nc1cc([C@H]2CC[C@@H](OC(=O)NC3(CC(F)(F)F)CC3)C2)[nH]n1 [Example 451, (1R,3S)-3-{3-[(1,2-oxazol-3-ylacetyl)amino]-1H-pyrazol-5-yl}cyclopentyl [1-(2,2,2-trifluoroethyl)cyclopropyl] carbamate]",9.34
2,"COc1cnc(CC(=O)Nc2cc([C@H]3CC[C@@H](OC(=O)NCCC(F)(F)F)C3)[nH]n2)cn1 [Example 222, (1R,3S)-3-(3-{[(5-methoxypyrazin-2-yl)acetyl]amino}-1H-pyrazol-5-yl)cyclopentyl (3,3,3-trifluoropropyl)carbamate]",8.53
3,"Cc1cnc(CC(=O)Nc2cc([C@H]3CC[C@@H](OC(=O)N[C@H](C)C4CC4)C3)[nH]n2)cn1 [Example 471, (1R,3S)-3-(3-{[(5-methylpyrazin-2-yl)acetyl]amino}-1H-pyrazol-5-yl)cyclopentyl [(1R)-1-cyclopropylethyl]carbamate]",8.84
4,"Cc1cc(CC(=O)Nc2cc([C@H]3CC[C@@H](OC(=O)NC4(C)CC4)C3)[nH]n2)no1 [Example 7, (1R,3S)-3-(3-{[(5-methyl-1,2-oxazol-3-yl)acetyl]amino}-1H-pyrazol-5-yl)cyclopentyl (1-methylcyclopropyl)carbamate]",9.21
5,"CC1(NC(=O)O[C@@H]2CC[C@H](c3cc(NC(=O)Cc4ccon4)n[nH]3)C2)CC1 [Example 419, (1R,3S)-3-{3-[(1,2-oxazol-3-ylacetyl)amino]-1H-pyrazol-5-yl}cyclopentyl (1-methylcyclopropyl)carbamate]",9.44
6,"CC1(NC(=O)O[C@@H]2CC[C@H](c3cc(NC(=O)CC4COc5ccccc54)n[nH]3)C2)CCOC1 (single isomer, unassigned) [Example 492]",8.62
7,"COc1cc(CC(=O)Nc2cc([C@@H]3CC[C@H](OC(=O)NCC4CCOCC4)C3)[nH]n2)ccn1 [Example 512, (1S,3R)-3-(3-{[(2-methoxypyridin-4-yl)acetyl]amino}-1H-pyrazol-5-yl)cyclopentyl (tetrahydro-2H-pyran-4-ylmethyl)carbamate]",8.49
8,"C[C@@H](NC(=O)O[C@@H]1CC[C@H](c2cc(NC(=O)Cc3ccon3)n[nH]2)C1)C1CC1 [Example 467, (1R,3S)-3-{3-[(1,2-oxazol-3-ylacetyl)amino]-1H-pyrazol-5-yl}cyclopentyl [(1R)-1-cyclopropylethyl]carbamate]",8.92
9,"COc1cc(CC(=O)Nc2cc([C@H]3CC[C@@H](OC(=O)NC(C)C)C3)[nH]n2)c(OC)cn1 [Example 285, (1R,3S)-3-(3-{[(2,5-dimethoxypyridin-4-yl)acetyl]amino}-1H-pyrazol-5-yl)cyclopentyl propan-2-ylcarbamate]",8.40
10,"C[C@H](NC(=O)O[C@@H]1CC[C@H](c2cc(NC(=O)Cc3ccon3)n[nH]2)C1)C1CC1 [Example 466, (1R,3S)-3-{3-[(1,2-oxazol-3-ylacetyl)amino]-1H-pyrazol-5-yl}cyclopentyl [(1S)-1-cyclopropylethyl]carbamate]",8.99
11,"CC[C@H](C)NC(=O)O[C@@H]1CC[C@H](c2cc(NC(=O)Cc3cn(C)nn3)n[nH]2)C1 [Example 331, (1R,3S)-3-(3-{[(1-methyl-1H-1,2,3-triazol-4-yl)acetyl]amino}-1H-pyrazol-5-yl)cyclopentyl (2S)-butan-2-ylcarbamate]",8.83
12,"Cc1cc(CC(=O)Nc2cc([C@H]3CC[C@@H](OC(=O)N[C@H](C)C4CC4)C3)[nH]n2)on1 [Example 469, (1R,3S)-3-(3-{[(3-methyl-1,2-oxazol-5-yl)acetyl]amino}-1H-pyrazol-5-yl)cyclopentyl [(1R)-1-cyclopropylethyl]carbamate]",9.51
